From US6274715A, “Tricyclic erythromycin derivatives” (priority 1997, dated 2001)
Values after ≈ are worked out from the molar mass of the structure shown.

Assays:
Assay type in all cases: cell-based
[1] = system: H. Influenza Dill AMP R; assay: In vitro antibacterial activity against H. Influenza Dill AMP R, MIC; settings: separate assay, unit assumed
Procedure, shortened: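 Agar dilution in Brain Heart Infusion agar, twelve successive compound dilutions, inoculated by Steers replicator with 1:100 (1:10 for slow growers) culture dilutions. Incubation 35-37° C. for 20 to 24 hours; MIC is lowest concentration giving no growth, slight haze or sparse colonies versus drug-free control.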

[2] = system: STAPHYLOCOCCUS AUREUS CMX 553; assay: In vitro antibacterial activity, MIC, BHI agar dilution; settings: S. aureus CMX 553, unit assumed
[3] = system: STAPHYLOCOCCUS AUREUS NCTC10649M; assay: as above; settings: S. aureus NCTC10649M, unit assumed
[4] = system: PSEUDOMONAS AERUGINOSA 5007; assay: as above; settings: P. aeruginosa 5007, unit assumed
[5] = system: STREPTOCOCCUS BOVIS A-5169; assay: as above; settings: S. bovis A-5169, unit assumed
[6] = system: ESCHERICHIA COLI JUHL; settings: E. coli JUHL; BHI agar; unit assumed
[7] = system: ESCHERICHIA COLI H560; assay: In vitro antibacterial activity, MIC, BHI agar dilution; settings: E. coli H560, unit assumed
[8] = system: ESCHERICHIA COLI KNK 437; settings: E. coli KNK 437; BHI agar; unit assumed
[9] = system: STREPTOCOCCUS PYOGENES PIU 2548; assay: In vitro antibacterial activity, MIC, BHI agar dilution; settings: S. pyogenes PIU 2548, unit assumed
[10] = system: MYCOBACTERIUM SMEGMATIS ATCC 114; assay: as above; settings: M. smegmatis ATCC 114, unit assumed
[11] = system: STAPHYLOCOCCUS AUREUS 1775; assay: as above; settings: S. aureus 1775, unit assumed
[12] = system: PSEUDOMONAS CEPACIA 296I; assay: as above; settings: P. cepacia 296I, unit assumed
[13] = system: STREPTOCOCCUS PYOGENES 930; assay: as above; settings: S. pyogenes 930, unit assumed
[14] = system: ENTEROBACTER AEROGENES ATCC 13048; assay: as above; settings: E. aerogenes ATCC 13048, unit assumed
[15] = system: STAPHYLOCOCCUS AUREUS ATCC 6538P; assay: as above; settings: S. aureus ATCC 6538P, 35-37° C., 20 to 24 hours, unit assumed
[16] = system: PSEUDOMONAS AERUGINOSA DPHD-2862; assay: as above; settings: P. aeruginosa DPHD-2862, unit assumed
[17] = system: ESCHERICHIA COLI DC-2; assay: as above; settings: E. coli DC-2, unit assumed
[18] = system: STR[…] 508; assay: as above; settings: S. agalactiae CMX 508, unit assumed
Procedure, shortened: (§1)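 MIC was read visually as the lowest drug level with no growth, a slight haze or sparsely isolated colonies relative to a compound-free growth control. Organisms were spotted at 1:100 dilution (1:10 for slow-growing strains) onto Brain Heart Infusion agar containing serial compound dilutions and incubated 20 to 24 hours at 35-37° C.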

[19] = system: M[…] ATCC 4698; assay: as above; settings: M. luteus ATCC 4698, unit assumed
Procedure, shortened: as §1

[20] = system: M[…] ATCC 9341; assay: as above; settings: M. luteus ATCC 9341, unit assumed
Procedure, shortened: as §1

[21] = system: EN[…] ATCC 8043; assay: as above; settings: E. faecium ATCC 8043, unit assumed
Procedure, shortened: as §1

[22] = system: PSEUDOMONAS AERUGINOSA K799/WT; assay: as above; settings: P. aeruginosa K799/WT, unit assumed
[23] = system: STAPHYLOCOCCUS AUREUS A-5278; assay: as above; settings: S. aureus A-5278, unit assumed
[24] = system: PSEUDOMONAS AERUGINOSA DPHD-5263; assay: as above; settings: P. aeruginosa DPHD-5263, unit assumed
[25] = system: ESCHERICHIA COLI SS; assay: as above; settings: E. coli SS, unit assumed
[26] = system: PSEUDOMONAS AERUGINOSA BMH10; assay: as above; settings: P. aeruginosa BMH10, unit assumed
[27] = system: STAPHYLOCOCCUS AUREUS A5177; assay: as above; settings: S. aureus A5177, unit assumed
[28] = system: PSEUDOMONAS AERUGINOSA K799/61; assay: as above; settings: P. aeruginosa K799/61, unit assumed
[29] = system: KLEBSIELLA PNEUMONIAE ATCC 8045; assay: as above; settings: K. pneumoniae ATCC 8045, unit assumed
[30] = system: STAPHYLOCOCCUS EPIDERMIDIS 3519; settings: S. epidermidis 3519; BHI agar; unit assumed
[31] = system: ACINETOBACTER CALCOACETICUS CMX 669; assay: In vitro antibacterial activity, MIC, BHI agar dilution; settings: A. calcoaceticus CMX 669, unit assumed
[32] = system: STAPHYLOCOCCUS AUREUS CMX 642A; assay: as above; settings: S. aureus CMX 642A, unit assumed
[33] = system: PROVIDENCIA STUARTII CMX 640; settings: P. stuartii CMX 640; BHI agar; unit assumed
[34] = system: STREPTOCOCCUS PYOGENES EES61; assay: In vitro antibacterial activity, MIC, BHI agar dilution; settings: S. pyogenes EES61, unit assumed
[35] = system: CANDIDA ALBICANS CCH 442; assay: as above; settings: C. albicans CCH 442, unit assumed

SMILES	MIC [1] [µg/mL]	MIC [2] [µg/mL]	MIC [3] [µg/mL]	MIC [4] [µg/mL]	MIC [5] [µg/mL]	MIC [6] [µg/mL]	MIC [7] [µg/mL]	MIC [8] [µg/mL]	MIC [9] [µg/mL]	MIC [10] [µg/mL]	MIC [11] [µg/mL]	MIC [12] [µg/mL]	MIC [13] [µg/mL]	MIC [14] [µg/mL]	MIC [15] [µg/mL]	MIC [16] [µg/mL]	MIC [17] [µg/mL]	MIC [18] [µg/mL]	MIC [19] [µg/mL]	MIC [20] [µg/mL]	other results
CC[C@H]1OC(=O)[C@H](C)C(=O)[C@H](C)[C@@H](O[C@@H]2O[C@H](C)C[C@H](N(C)C)[C@H]2O)[C@](C)(OC)C[C@@H](C)C2=N[C@H](CCOCc3ccccc3)CN3C(=O)O[C@@]1(C)[C@H]3[C@H]2C [Example 92]	32 (≈ 41.5 µM)	0.39 (≈ 0.505 µM)	0.39 (≈ 0.505 µM)	> 100	0.05 (≈ 0.0648 µM)	> 100	> 100	> 100	0.39 (≈ 0.505 µM)	1.56 (≈ 2.02 µM)	> 100	> 100	100 (≈ 130 µM)	> 100	0.39 (≈ 0.505 µM)	> 100	> 100	0.05 (≈ 0.0648 µM)	0.39 (≈ 0.505 µM)	0.05 (≈ 0.0648 µM)	MIC [21]: 0.1 µg/mL (≈ 0.13 µM); MIC [22]: > 100 µg/mL; MIC [23]: > 100 µg/mL; MIC [24]: > 100 µg/mL; MIC [25]: 1.56 µg/mL (≈ 2.02 µM); MIC [26]: > 100 µg/mL; MIC [27]: 0.2 µg/mL (≈ 0.259 µM); MIC [28]: 6.2 µg/mL (≈ 8.03 µM); MIC [29]: > 100 µg/mL; MIC [30]: 0.39 µg/mL (≈ 0.505 µM); MIC [31]: > 100 µg/mL; MIC [32]: 0.39 µg/mL (≈ 0.505 µM); MIC [33]: > 100 µg/mL; MIC [34]: 0.05 µg/mL (≈ 0.0648 µM); MIC [35]: > 100 µg/mL
CC[C@H]1OC(=O)[C@H](C)C(=O)[C@H](C)[C@@H](O[C@@H]2O[C@H](C)C[C@H](N(C)C)[C@H]2O)[C@](C)(OC)C[C@@H](C)C2=NC[C@H](CCCc3ccccc3)N3C(=O)O[C@@]1(C)[C@H]3[C@H]2C [Example 40]	4 (≈ 5.29 µM)	0.78 (≈ 1.03 µM)	0.78 (≈ 1.03 µM)	> 100	0.02 (≈ 0.0265 µM)	> 100	25 (≈ 33.1 µM)	> 100	0.2 (≈ 0.265 µM)	0.39 (≈ 0.516 µM)	> 100	> 100	100 (≈ 132 µM)	> 100	0.78 (≈ 1.03 µM)	> 100	100 (≈ 132 µM)	0.05 (≈ 0.0661 µM)	0.39 (≈ 0.516 µM)	0.05 (≈ 0.0661 µM)	MIC [21]: 0.05 µg/mL (≈ 0.0661 µM); MIC [22]: > 100 µg/mL; MIC [23]: > 100 µg/mL; MIC [24]: > 100 µg/mL; MIC [25]: 0.78 µg/mL (≈ 1.03 µM); MIC [26]: > 100 µg/mL; MIC [27]: 0.78 µg/mL (≈ 1.03 µM); MIC [28]: 0.78 µg/mL (≈ 1.03 µM); MIC [29]: > 100 µg/mL; MIC [30]: 0.39 µg/mL (≈ 0.516 µM); MIC [31]: 50 µg/mL (≈ 66.1 µM); MIC [32]: 0.78 µg/mL (≈ 1.03 µM); MIC [33]: > 100 µg/mL; MIC [34]: 0.02 µg/mL (≈ 0.0265 µM); MIC [35]: > 100 µg/mL
